What is called IC50 is the concentration that inhibits the measured activity by half.

The target of assay [1] is T1, Cbl-b (truncated variant, UniProt number Q13191) (Homo sapiens, UniProt Q13191).
T1 construct: made in house
Put plainly: Cbl-b displacement assay (Cbl-b inhibition assay, fluorophore-labeled probe). Type of assay: binding. The text has this: As described in Biological Example 1A, a Cbl-b activity assay (Cbl-b inhibition assay) used to measure the IC50 values for Cbl-b inhibition uses a mixture comprising candidate compound, Cbl-b (truncated, with an Avitag, and biotinylated), a fluorescently-labeled E2 enzyme UbcH5B labelled with ubiquitin conjugated to BODIPY-fluorescein (UbcH5B-Ub), streptavidin-terbium, and assay buffer. In one embodiment, the Cbl-b activity assay (Cbl-b inhibition assay) used to measure IC50 for inhibition of Cbl-b uses the conditions described in Biological Example 1A with 12 nM Cbl-b. […] In another embodiment, the Cbl-b activity assay (Cbl-b inhibition assay) used to measure IC50 for inhibition of Cbl-b uses the conditions described in Biological Example 1B, with candidate compound, 0.125 nM Cbl-b (truncated, with an avitag, and biotinylated), fluorescently labelled inhibitor probe, and assay buffer. Displacement of the inhibitor probe indicates Cbl-b activity.
Candidate compounds were evaluated for their ability to bind and inhibit Cbl-b, an E3 ubiquitin-protein ligase, as evidenced by their ability to displace a fluorophore-labeled probe (Example 168) bound to Cbl-b.
The ability of candidate compounds to displace a known inhibitor and thereby inhibit Cbl-b activity was measured by monitoring the interaction of Cbl-b with a fluorophore-labeled probe in the presence of the candidate compound. A truncated variant of Cbl-b (UniProt number Q13191; SEQ ID NO:1) containing an Avitag at its N-terminus was co-expressed with BirA biotin ligase and purified using a standard protocol (see Dou et al., Nature Structural and Molecular Biology, 8: 982-987, 2013; Avidity LLC).
Fluorescently-labeled inhibitor probe was synthesized and tagged with BODIPY FL (Example 168). Cbl-b displacement assays were performed in a 384-well plate at room temperature in a 10 μL reaction volume by pre-incubating 0.125 nM Cbl-b (final concentration) in an assay buffer containing 20 mM HEPES pH 7.5, 150 mM NaCl, 0.01% Triton X-100, 0.01% BSA, and 0.5 mM TCEP in the presence of a candidate compound in 1% DMSO (final concentration) for one hour. After incubation in the presence of the candidate compound, the plate was incubated for an additional one hour in the presence of an approximate EC40 binding saturation consisting of 150 nM fluorescently-labeled inhibitor probe and 2 nM Streptavidin-Terbium (Cisbio) (final concentrations). Following the one hour incubation, the plates were read for TR-FRET signal at 520/620 nm using an Envision plate reader (Perkin Elmer).
Compounds were ranked into bins A through D as follows for IC50: A indicates <0.1 μM, B indicates 0.1 μM≤IC50<1 μM, C indicates 1 μM≤IC50<5 μM, and D indicates 5 μM≤IC50.

In assay [2] the target is T1, Cbl-b. Put plainly: Cbl-b activity assay (TR-FRET, interaction of Cbl-b with UbcH5B-Ub). It counts as biochemical. In general terms: Time-resolved FRET reads energy transfer from a long-lived donor to a nearby acceptor.
[3] abbreviates: Biological Example 1B, read-out: IC50 values in the Cbl-b inhibition assay of Biological Example 1B.
[4] abbreviates: displacement assay, 0.125 nM Cbl-b, 150 nM fluorescently-labeled inhibitor probe, read-out: Cbl-b activity IC50.
The mark [5] stands for this setting: high conditions: 100 mM NaCl, 60 nM Src kinase, 12 nM Cbl-b, read-out: Cbl-b activity IC50.
Where [6] appears, read: Biological Example 1A, low or high conditions not stated, read-out: IC50 values in the Cbl-b inhibition assay of Biological Example 1A.

T1 sequence (Q13191 36-427): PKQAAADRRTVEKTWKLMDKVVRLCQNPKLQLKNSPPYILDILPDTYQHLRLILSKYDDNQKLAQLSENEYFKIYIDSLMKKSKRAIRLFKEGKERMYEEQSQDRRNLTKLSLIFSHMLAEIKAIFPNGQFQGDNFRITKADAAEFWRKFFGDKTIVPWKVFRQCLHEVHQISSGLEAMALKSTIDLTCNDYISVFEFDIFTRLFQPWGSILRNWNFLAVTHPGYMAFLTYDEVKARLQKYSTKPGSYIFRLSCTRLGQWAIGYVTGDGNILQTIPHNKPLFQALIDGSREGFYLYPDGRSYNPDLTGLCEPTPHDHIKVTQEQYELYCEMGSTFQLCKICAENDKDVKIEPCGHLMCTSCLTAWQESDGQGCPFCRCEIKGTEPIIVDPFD

Take `Cn1cnnc1CC1(c2cccc(-c3n[nH]c4c(CN5CC[C@H](F)C5)cc(C(F)(F)F)nc34)c2)COC1` [Example 114, (S)-7-((3-fluoropyrrolidin-1-yl)methyl)-3-(3-(3-((4-methyl-4H-1,2,4-triazol-3-yl)methyl)oxetan-3-yl)phenyl)-5-(trifluoromethyl)-1H-pyrazolo[4,3-b]pyridine]: the concentration for half-maximal inhibition (IC50) in assay [1] (setting [3]) and in assay [1] (setting [4]) was less than 0.1 µM each time.

As to `Cn1cnnc1[C@@H](c1cccc(-c2n[nH]c3c(CN4CC[C@H](F)C4)cc(C(F)(F)F)nc23)c1)C1CCC1` [Example 115, 3-(3-((R)-cyclobutyl(4-methyl-4H-1,2,4-triazol-3-yl)methyl)phenyl)-7-(((S)-3-fluoropyrrolidin-1-yl)methyl)-5-(trifluoromethyl)-1H-pyrazolo[4,3-b]pyridine], the IC50 in assay [1] (setting [3]) and in assay [1] (setting [4]) was less than 0.1 µM in each case.

For `C[C@H](Sc1nncn1C)c1cccc(NC(=O)N2CCO[C@@H]([C@H]3CCCO3)C2)c1` [Example 136, (R)—N-(3-((S)-1-((4-methyl-4H-1,2,4-triazol-3-yl)thio)ethyl)phenyl)-2-((R)-tetrahydrofuran-2-yl)morpholine-4-carboxamide], in assay [2] (setting [5]), the 50% inhibitory concentration (IC50) is no less than 5 µM.

Take `C[C@H](Cc1nncn1C)c1cccc(-c2n[nH]c3c(CN4CC[C@H](F)C4)cc(C(F)(F)F)nc23)c1` [Example 113, 3-[(2R)-2-[3-(7-[[(3S)-3-fluoropyrrolidin-1-yl]methyl]-5-(trifluoromethyl)-1H-pyrazolo[4,3-b]pyridin-3-yl)phenyl]propyl]-4-methyl-4H-1,2,4-triazole]: the half-maximal inhibitory concentration (IC50) in assay [2] (setting [6]) and in assay [2] (setting [5]) was less than 0.1 µM each time.

As to `CC(C)C1CN(C(=O)Nc2cccc([C@H](C)Sc3nncn3C)c2)CCO1` (stereo partly drawn) [Example 51, 2-isopropyl-N-(3-((S)-1-((4-methyl-4H-1,2,4-triazol-3-yl)thio)ethyl)phenyl)morpholine-4-carboxamide], in assay [2] (setting [5]), the concentration for half-maximal inhibition (IC50) is no less than 5 µM.

As for `Cn1cnnc1[C@H]1C[C@H]1c1cccc(NC(=O)N2CCOc3cccnc32)c1` [Example 166, N-(3-((1R,2S)-2-(4-methyl-4H-1,2,4-triazol-3-yl)cyclopropyl)phenyl)-2,3-dihydro-4H-pyrido[3,2-b][1,4]oxazine-4-carboxamide], the IC50 in assay [2] (setting [5]) is no less than 5 µM.

For the compound `COc1cccc(NC(=O)Nc2cccc([C@H](C)Sc3nncn3C)c2)n1` [Example 4, (S)-1-(6-methoxypyridin-2-yl)-3-(3-(1-((4-methyl-4H-1,2,4-triazol-3-yl)thio)ethyl)phenyl)urea], the IC50 in assay [2] (setting [5]) was no less than 5 µM.

Take `C[C@H](Sc1nncn1C)c1cccc(NC(=O)N2CC(C)(F)C2)c1` [Example 132, 3-fluoro-3-methyl-N-[3-[(1S)-1-[(4-methyl-4H-1,2,4-triazol-3-yl)sulfanyl]ethyl]phenyl]azetidine-1-carboxamide]: in assay [2] (setting [5]), the half-inhibitory concentration (IC50) is no less than 5 µM.

With `C[C@H](Sc1nncn1C)c1cccc(NC(=O)N2CCS(=O)(=O)CC2)c1` [Example 165, (S)—N-(3-(1-((4-methyl-4H-1,2,4-triazol-3-yl)thio)ethyl)phenyl)thiomorpholine-4-carboxamide 1,1-dioxide], the IC50 in assay [2] (setting [5]) is no less than 5 µM.

For `C[C@H](Sc1nncn1C)c1cccc(NC(=O)N2CC3(CCC3O)C2)c1` (stereo partly drawn) [Example 133, 5-hydroxy-N-(3-((S)-1-((4-methyl-4H-1,2,4-triazol-3-yl)thio)ethyl)phenyl)-2-azaspiro[3.3]heptane-2-carboxamide], the IC50 in assay [2] (setting [5]) is no less than 5 µM.

For the compound `C[C@H](Sc1nncn1C)c1cccc(-n2ncc(-c3cccc(C(=O)O)c3)n2)c1` [Example 90, (S)-3-(2-(3-(1-(4-methyl-4H-1,2,4-triazol-3-ylthio)ethyl)phenyl)-2H-1,2,3-triazol-4-yl)benzoic acid], the IC50 in assay [2] (setting [6]) and in assay [2] (setting [5]) was 1 to 5 µM throughout.

As to `COc1ccc(-c2cn(-c3cccc([C@H](C)Sc4nncn4C)c3)nn2)cc1` [Example 75, (S)-4-(4-methoxyphenyl)-1-(3-(1-((4-methyl-4H-1,2,4-triazol-3-yl)thio)ethyl)phenyl)-1H-1,2,3-triazole], in assay [2] (setting [5]), the concentration for half-maximal inhibition (IC50) was in the range of 1 to 5 µM.

On to `C[C@@H](Sc1nncn1C)c1cccc(-c2cc(-c3ccccc3)n[nH]2)c1` [Example 103, (R)-4-methyl-3-((1-(3-(3-phenyl-1H-pyrazol-5-yl)phenyl)ethyl)thio)-4H-1,2,4-triazole], for which the half-maximal inhibitory concentration (IC50) in assay [2] (setting [6]) and in assay [2] (setting [5]) was no less than 5 µM in each case.

In the case of `COc1cccc(-c2cc(-c3cccc([C@H](C)Sc4nncn4C)c3)on2)c1` [Example 60, (S)-3-(3-methoxyphenyl)-5-(3-(1-((4-methyl-4H-1,2,4-triazol-3-yl)thio)ethyl)phenyl)isoxazole], the half-maximal inhibitory concentration (IC50) in assay [2] (setting [5]) lay within 1 to 5 µM.

In the case of `C[C@H](Sc1nncn1C)c1cccc(NC(=O)N2CCN(C)CC2)c1` [Example 155, (S)-4-methyl-N-(3-(1-((4-methyl-4H-1,2,4-triazol-3-yl)thio)ethyl)phenyl)piperazine-1-carboxamide], the IC50 in assay [2] (setting [5]) is no less than 5 µM.

For `CNC(=O)c1ccc(-c2cn(-c3cccc([C@H](C)Sc4nncn4C)c3)nn2)cc1` [Example 83, (S)—N-methyl-4-(1-(3-(1-(4-methyl-4H-1,2,4-triazol-3-ylthio)ethyl)phenyl)-1H-1,2,3-triazol-4-yl)benzamide], the 50% inhibitory concentration (IC50) in assay [2] (setting [6]) and in assay [2] (setting [5]) was no less than 5 µM in each case.

On to `C[C@H](Sc1nncn1C)c1cccc(-n2cc(-c3ccc(C(=O)O)cc3)nn2)c1` [Example 81, (S)-4-(1-(3-(1-(4-methyl-4H-1,2,4-triazol-3-ylthio)ethyl)phenyl)-1H-1,2,3-triazol-4-yl)benzoic acid], for which the half-maximal inhibitory concentration (IC50) in assay [2] (setting [6]) and in assay [2] (setting [5]) was no less than 5 µM each time.

For `CCN1CCc2nc(NC(=O)Nc3cccc([C@H](C)Sc4nncn4C)c3)sc2C1` [Example 137, (S)-1-(5-ethyl-4,5,6,7-tetrahydrothiazolo[5,4-c]pyridin-2-yl)-3-(3-(1-((4-methyl-4H-1,2,4-triazol-3-yl)thio)ethyl)phenyl)urea], the IC50 in assay [2] (setting [5]) is no less than 5 µM.

Regarding `C[C@H](Sc1nncn1C)c1cccc(NC(=O)NCc2ccccc2)c1` [Example 5, (S)-1-benzyl-3-(3-(1-((4-methyl-4H-1,2,4-triazol-3-yl)thio)ethyl)phenyl)urea], the IC50 in assay [2] (low conditions: 50 mM NaCl, 30 nM Src kinase, 12 nM Cbl-b, read-out: Cbl-b activity IC50) was no less than 5 µM.

For the origin of these results see US12653809B2, “Urea, amide, and substituted heteroaryl compounds for CBL-B inhibition” (Nurix Therapeutics, Inc., priority 2019, dated 2026).
